This note sets out measurements from PMC9446078 (Frontiers in Endocrinology, 2022).

A short description of the data set: Toxicokinetics in miniature swine. Format: in vivo, Hanford miniature swine. As to the method: A total of 40 Hanford miniature swine (20 male and 20 female) divided into four treatment groups were used for this study. A 12-week topical application of Galnobax 20% was carried out in the miniature swine wound healing model with twice-daily dosing. Six wounds (10 cm^2 each) of partial thickness were created on the dorsal region of all animals. Four wounds of each animal received twice-daily topical doses of either the vehicle or Galnobax gel, and the remaining two sites served as untreated comparative control wounds. Each group has four male and female miniature swine for the assessments and one each for the recovery period as given in Table 1 . Safety parameters in terms of ECG, clinical pathology, wound site evaluation, and toxicokinetics were performed during the study.

Setting [1] is: Day 1, Group 2 swine, topical 400 mg Galnobax Gel, mean.
The mark [2] stands for this setting: Week 6, Group 2 swine, topical 400 mg Galnobax Gel BID, mean.
Setting [3] is: Week 12, Group 2 swine, topical 400 mg Galnobax Gel BID, mean.

SMILES strings stand for the structures.

`CC(C)NCC(O)COc1ccc(CCC(=O)O)cc1` (centres unmarked) [Esmolol Acid, Esmolol acid]: under setting [1], the AUClast came to 3780 ng·h/mL, the Cmax was determined as 683 ng/mL, the Tmax is 2.60 h and the t1/2 amounted to 4.18 h. The t1/2 entry (Day 1, Group 2 swine, topical 400 mg Galnobax Gel, mean, listed as Esmolol acid) is given as “approximately 4 hr”. Moreover, under setting [2], the AUClast amounted to 308 ng·h/mL, the Cmax is given as 52.5 ng/mL and the Tmax came to 5.33 h. Under setting [3], the AUC0-8 was found to be 269 ng·h/mL, the AUClast was 291 ng·h/mL, the Cmax turned out to be 59.7 ng/mL and the Tmax was determined as 2.09 h. Under setting [3], this compound displayed a t1/2 of 15.90 h. In addition, under “miniature swine, topical Galnobax”, the “accumulation after 12 weeks of twice-daily topical application” value is recorded as “no apparent accumulation”.
